In US6589762B1, “Calcafluor screen for chitin biosynthesis inhibitors” (priority 1993, dated 2003):

Columns and labels:
[1] = system: Neurospora crassa; assay: Calcofluor rescue with filamentous fungus instead of S. cerevisiae; type: cell-based; conditions: very high calcofluor concentrations
Description: (§1) Attempts are made to replace S. cerevisiae with several species of filamentous fungi, including Neurospora crassa, Aspergillus nidulans, Botrytis cinerea, Pseudocercosporella herpotrichoides, but all the species respond differently from S. cerevisiae. N. crassa and A. nidulans require very high concentrations of calcofluor to inhibit growth.

[2] = system: Aspergillus nidulans; assay: as above; type: cell-based; conditions: very high calcofluor concentrations
Description: as §1

[3] = system: Botrytis cinerea; assay: as above; type: cell-based; conditions: does not grow in the media
Description: as §1

[4] = system: Pseudocercosporella herpotrichoides; assay: as above; type: cell-based; conditions: does not grow in the media
Description: as §1

[5] = system: Saccharomyces cerevisiae strain Y294; assay: Calcofluor rescue screen (disk or well diffusion); type: cell-based; conditions: disk diffusion assay, 20 μg/disk, 30° C., two days
Procedure: A preferred method comprises adding a test sample to a Saccharomyces cerevisiae culture containing calcofluor white or a calcofluor white derivative. The test sample is introduced to a disk or a well on a culture plate in a standard diffusion assay using solidified media, or introduced into one of a series of equivalent tissue culture tubes or bottles in a standard turbidity assay using liquid media. The culture is incubated for such time under such conditions sufficient to observe yeast cell growth inhibition in a corresponding culture or culture plate area containing calcofluor white but no test sample. The extent of growth of the culture containing or surrounding the test sample is compared with the extent of growth in the culture or culture area containing no test sample. The presence of chitin synthesis inhibition is determined by observing whether growth in the presence of test sample exceeds growth in its absence. In a culture plate, this is a turbid zone of growth surrounding the test sample. In a culture tube series, this is enhanced turbidity.
autoclaving at 20 lbs for 15 min. Strain Y294 having genotype MATα leu2-3,112 ura3-52 his3Δ trp1 GAL+[CIR+] inoculated into this liquid media and grown overnight, an OD600 of ˜5 or greater, while being shaken at 30° C.
The plates are poured and test samples are placed on the plates. A ¼″ disk containing […] of nikkomycin Z is used as a positive control. The plates are incubated at 30° C. for two days and then examined for activity. Actives produce a turbid zone surrounding the test sample.
All compounds are tested by disk diffusion assay using the method of this invention at a rate of 20 μg/disk.

[6] = system: selected phytopathogenic fungi (Pseudocercosporella herpotrichoides, Rhizoctonia solani, Fusarium oxysporum); assay: In vitro fungicide discovery screen (growth in nutrient agar); type: cell-based; conditions: 10 μg/ml concentration range; especially against Rhizoctonia
Procedure: Standard in vitro and in vivo fungicide discovery screens are employed as tertiary tests to prioritize actives from the calcofluor rescue screen and the secondary screens. […] These include fungi causing wheat eyespot (Pseudocercosporella herpotrichoides), rice sheath blight (Rhizoctonia solani) and damping off (Fusarium oxysporum); all synthesize chitin-containing cell walls. High potency fungicides are active against these species in the 10 ppm range (10 μg/ml), while nikkomycin Z can be detected at ˜70 μg/ml in the calcofluor rescue assay if 30 μl volumes are tested in welled plates.

[7] = target: T1, Chs3 (Saccharomyces cerevisiae, UniProt P29465); assay: In vitro chitin synthase enzyme assay (incorporation of UDP-14C-N-acetylglucosamine); type: biochemical
T1 construct: To assay Chs3 activity, membranes from cells lacking Chs1 and, preferably, Chs2 are prepared; endogenous in cells; host or cells: S. cerevisiae strains ECY36-3C, JW17-11/1A/FOA or SSY640-10A (crude membrane fraction)
Procedure: In Vitro Secondary Screens. These enzyme assays detect inhibition of individual chitin synthase isozymes Chs1, Chs2, and Chs3 by monitoring the incorporation of radioactive chitin precursor uridine diphospho-N-acetyl glucosamine into acid precipitable counts (i.e., chitin).
To assay Chs3 activity, membranes from cells lacking Chs1 and, preferably, Chs2 are prepared by a modification of the method of Orlean, P. cited above. Strain ECY36-3C, JW17-11/1A/FOA or SSY640-10A are inoculated into YEPD, and the culture is shaken at 30° C. Cells are harvested while still growing exponentially, e.g., at O.D.600 of ˜0.4 as measured in a Guilford Response™ spectrophotometer, washed once in 50 mM Tris-HCl, pH 7.5, containing 0.01 mM EDTA and 1 mM DTT (1,4-dithiothreitol), and resuspended in about 3 volumes of this buffer. Glass beads of about 200 to 300 micron diameter are added to just below the meniscus of the suspension, and cells are shaken by vortexing or in a Bead-Beater™ until lysis occurs, which is monitored microscopically. During this procedure, the cell suspension is kept below 10° C. by cooling in ice. The extract is collected, the glass beads are washed with the same buffer, and the wash is added to the extract. The volume is adjusted to about 20 original volumes with the same buffer.
The cell walls and debris are removed by a 10 minute centrifugation at about 3000×g. The samples are centriuged at 100,000×g for 40 minutes at 4° C. The membrane pellets are resuspended in about one original volume 50 mM Tris-HCl, pH 7.5 containing 0.01 mM EDTA which may contain 33% glycerol, and subjected to Dounce homogenization.
Ten μl of membranes are incubated with shaking in the presence of putative inhibitors in a standard 50 μl assay mixture containing 1 mM uridine diphospho-(^14C)-N-acetyl-glucosamine (400,000 cpm/μmole), 40 mM N-acetylglucosamine, 50 mM Tris-HCl, pH 7.5, and 5 mM MgCl2 at 25° C. The reaction is stopped after 90 minutes by addition of 10% trichloroacetic acid, and the amount of product quantified by filtration and scintillation counting.

T1 sequence (P34226 1-693): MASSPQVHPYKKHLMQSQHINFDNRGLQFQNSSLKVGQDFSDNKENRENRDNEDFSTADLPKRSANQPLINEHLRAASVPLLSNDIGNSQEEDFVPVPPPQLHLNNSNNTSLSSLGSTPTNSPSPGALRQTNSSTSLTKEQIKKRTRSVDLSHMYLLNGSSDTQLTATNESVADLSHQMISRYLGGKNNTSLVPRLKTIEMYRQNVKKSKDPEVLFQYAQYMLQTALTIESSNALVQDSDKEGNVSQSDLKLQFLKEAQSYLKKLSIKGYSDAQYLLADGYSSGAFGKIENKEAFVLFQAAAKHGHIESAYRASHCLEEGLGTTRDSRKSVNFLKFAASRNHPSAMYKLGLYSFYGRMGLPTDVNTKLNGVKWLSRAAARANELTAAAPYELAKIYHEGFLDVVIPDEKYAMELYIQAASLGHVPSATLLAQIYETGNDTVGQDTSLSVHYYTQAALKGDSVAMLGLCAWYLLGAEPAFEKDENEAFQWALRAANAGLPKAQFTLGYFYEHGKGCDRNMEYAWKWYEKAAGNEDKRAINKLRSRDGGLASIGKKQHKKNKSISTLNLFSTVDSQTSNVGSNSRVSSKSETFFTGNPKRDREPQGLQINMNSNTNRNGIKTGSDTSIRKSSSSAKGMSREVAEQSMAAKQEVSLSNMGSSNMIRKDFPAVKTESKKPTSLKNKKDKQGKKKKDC
T1 sequence (P29465 whole entry): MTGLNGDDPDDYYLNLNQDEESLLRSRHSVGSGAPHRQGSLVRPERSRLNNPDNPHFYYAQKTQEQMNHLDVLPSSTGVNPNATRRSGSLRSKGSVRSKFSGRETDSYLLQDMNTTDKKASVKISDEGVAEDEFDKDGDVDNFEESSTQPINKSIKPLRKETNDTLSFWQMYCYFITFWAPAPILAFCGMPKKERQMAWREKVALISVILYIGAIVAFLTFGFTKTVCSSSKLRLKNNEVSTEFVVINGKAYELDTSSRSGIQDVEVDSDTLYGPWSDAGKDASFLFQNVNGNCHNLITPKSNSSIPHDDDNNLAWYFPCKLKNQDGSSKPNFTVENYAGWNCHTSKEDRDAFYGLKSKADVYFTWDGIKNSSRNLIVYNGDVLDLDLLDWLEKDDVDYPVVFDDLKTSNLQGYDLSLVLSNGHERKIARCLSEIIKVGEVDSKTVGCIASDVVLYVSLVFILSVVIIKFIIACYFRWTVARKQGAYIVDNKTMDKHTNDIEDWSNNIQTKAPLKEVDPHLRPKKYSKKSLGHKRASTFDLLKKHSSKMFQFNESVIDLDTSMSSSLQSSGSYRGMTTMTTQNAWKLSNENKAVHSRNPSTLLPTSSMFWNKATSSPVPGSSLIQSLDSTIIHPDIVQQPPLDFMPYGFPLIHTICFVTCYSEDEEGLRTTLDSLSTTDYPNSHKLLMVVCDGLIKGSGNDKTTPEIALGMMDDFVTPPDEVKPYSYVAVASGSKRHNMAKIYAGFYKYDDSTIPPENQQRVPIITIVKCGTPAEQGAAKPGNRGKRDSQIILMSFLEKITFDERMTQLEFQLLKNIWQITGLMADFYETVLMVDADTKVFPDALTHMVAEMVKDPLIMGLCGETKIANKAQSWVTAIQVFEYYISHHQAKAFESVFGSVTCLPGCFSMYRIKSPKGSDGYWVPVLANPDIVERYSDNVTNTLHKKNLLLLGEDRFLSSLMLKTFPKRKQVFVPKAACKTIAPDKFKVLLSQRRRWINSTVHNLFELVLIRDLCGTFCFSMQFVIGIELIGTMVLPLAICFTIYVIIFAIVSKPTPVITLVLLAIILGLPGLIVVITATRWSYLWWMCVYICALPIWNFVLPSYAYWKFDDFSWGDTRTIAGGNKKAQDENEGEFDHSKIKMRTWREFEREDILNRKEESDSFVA

Row | SMILES | growth in calcofluor culture [1] | growth in calcofluor culture [2] | rescue from calcofluor [3] | rescue from calcofluor [4] | activity in the calcofluor rescue screen (turbid zone of growth) [5] | activity against phytopathogenic fungi [6] | % Chs3 Activity ([7]; 10 μM inhibitor) | % Chs3 Activity ([7]; 30 μM inhibitor) | % Chs3 Activity ([7]; 90 μM inhibitor)
1 | Nc1nc(=O)[nH]cc1F [5-F-cytocine, 5-fluoro-cytosine] | extensive growth | extensive growth |  |  |  |  |  |  | 
2 | COC(=O)c1ccccc1S(=O)(=O)NC(=O)Nc1nc(C)cc(C)n1 [sulfometuron methyl] | extensive growth | extensive growth |  |  |  |  |  |  | 
3 | CCC(CC)Nc1c([N+](=O)[O-])cc(C)c(C)c1[N+](=O)[O-] [prowl] | extensive growth | extensive growth |  |  |  |  |  |  | 
4 | NC(=O)OC[C@H](O)[C@@H](O)[C@H](N)C(=O)N[C@H](C(=O)O)[C@H]1O[C@@H](n2cc(C(=O)O)c(=O)[nH]c2=O)[C@H](O)[C@@H]1O [polyoxin D] | extensive growth | extensive growth | no rescue | no rescue | inactive | excellent activity | 100% | ˜40% | ˜16%
